Laboratory results taken from US9364471B2, “Compositions and methods of treating retinal disease” (ALDEYRA THERAPEUTICS, INC., priority 2005, dated 2016).

Legend:
[1] = system: light sensitivity of dark adapted rats; experiment: ERG analysis of dark adaptation, dose ranging protocol; assay type: in vivo, rat; details: i.p.
Description: Dark adaptation is the recovery of visual sensitivity following exposure to light. Dark adaptation has multiple components including both fast (neuronal) processes and slow (photochemical) process. Regeneration of visual pigment is related to the slow photochemical process. Dark adaptation rates are measured for several reasons. Night blindness results from a failure to dark adapt (loss of visual light sensitivity). It is possible to find a safe dose for night vision by measuring drug effects on dark adapted visual light sensitivity.
An electroretinogram (ERG) is used measure dark adaptation under normal vs. drug conditions. ERG is the measurement of the electric field potential emitted by retinal neurons during their response to an experimentally defined light stimulus. More specifically, ERG measures retinal field potentials at the cornea after a flash of light (e.g., 50 ms). Field strengths are 10^2 to 10^3 microvolts, originating in retinal cells.
ERG is a non-invasive measurement which can be performed on either living subjects (human or animal) or a hemisected eye in solution that has been removed surgically from a living animal. […]
The ERG measurement is taken after a specific duration of post-bleach dark recovery (e.g., 30 min) determined previously by kinetic analysis (see FIGS. 6a and 6b). […]

[2] = NMR analysis of RAL reactions (Schiff base condensation and ring formation); assay type: physicochemical; details: Schiff base condensation with RAL, pure chloroform

Row | duration of the effect on vision ([1]; rat ERG) | SMILES | effect on ERG light sensitivity of dark adapted rats ([1]; dose ranging, FIG. 7) | tau (minutes) condense [2]
1 | decreases after 3 hours | CCOC(=O)c1cccc(N)c1 [Compound 6, tricaine methane sulfonate] | lowers light sensitivity of dark adapted rats in a dose dependent manner | –
2 | – | CC(C)(O)c1nc2ccc(Cl)cc2cc1N [Compound 9] | – | 320 min
